Data published in patent publication US12629452B2, “Cranial suture regeneration” (University of Southern California, priority 2021, dated 2026).

Test system: suture mesenchymal cells
Experiment: Western blot of Runx2 and OPN (osteogenic differentiation)
Type: cell-based, mouse
Settings: 20 μM Wnt agonist 1 or 100 nM LY2090314, one or two weeks, vs vehicle
Procedure: Suture mesenchymal cells from one-month-old C57BL/6J mice were cultured with 20 μM Wnt agonist 1 (Selleck, S8178) or 100 nM LY2090314 (Selleck, S7063) for one or two weeks in αMEM. Medium was changed every other day. Total protein was extracted using a solution of loading buffer (Cell Signaling Technology, 7723S), protease inhibitor (Thermo Fisher Scientific, 1861278) and DTT (Cell Signaling Technology, 7723S), then separated by 10% SDS-PAGE and transferred to PVDF membranes (Millipore, ISEQ00005). Membranes were blocked with 5% non-fat dry milk dissolved in TBST for 2 hours at room temperature with gentle shaking, and then incubated with primary antibodies: anti-Runx2 (Cell signaling technology 12556, 1:1000), anti-OPN (Abcam ab63856, 1:500), and anti-βactin (Abcam ab20272, 1:1000) at 4° C. overnight followed by corresponding horseradish-peroxidase (HRP)-conjugated secondary antibodies. Protein expression was detected by Bio-Rad ChemiDoc Touch (Bio-Rad) and intensities of bands were quantitated by Image J software.

| Compound | OPN expression level | Runx2 expression level |
| --- | --- | --- |
| O=C1NC(=O)C(c2cnc3ccccn23)=C1c1cn2c3c(cc(F)cc13)CN(C(=O)N1CCCCC1)CC2 [LY2090314] | significantly increased | significantly increased |
| COc1cccc(-c2cc(NCc3ccc4c(c3)OCO4)nc(N)n2)c1 [Wnt agonist 1] | significantly increased | significantly increased |
